Assay results taken from patent publication US8309558B2, “Compounds for the treatment of hepatitis C” (Bristol-Myers Squibb Company, priority 2008, dated 2012).
Like-named read-outs stand apart in the source and are kept apart here.

Columns and labels:
[1] = molecular target: T1, HCV NS5B RdRp genotype 1b (Hepatitis C virus genotype 1b, UniProt Q9WMX2); assay: Standard HCV NS5B RdRp enzyme assay; type: biochemical; details: HCV NS5B RdRp genotype 1b, read-out: IC50
T1 construct: The protein was expressed with an 18 amino acid C-terminal truncation to enhance the solubility; made in house; host or cells: E. coli BL21(DE3), pET21a vector
Description: HCV NS5B RdRp cloning, expression, and purification. The cDNA encoding the NS5B protein of HCV, genotype 1b, was cloned into the pET21a expression vector. The protein was expressed with an 18 amino acid C-terminal truncation to enhance the solubility. The E. coli competent cell line BL21(DE3) was used for expression of the protein. Cultures were grown at 37° C. for ˜4 hours until the cultures reached an optical density of 2.0 at 600 nm. The cultures were cooled to 20° C. and induced with 1 mM IPTG. Fresh ampicillin was added to a final concentration of 50 μg/ml and the cells were grown overnight at 20° C.
Cell pellets (3 L) were lysed for purification to yield 15-24 mgs of purified NS5B. The lysis buffer consisted of 20 mM Tris-HCl, pH 7.4, 500 mM NaCl, 0.5% triton X-100, 1 mM DTT, 1 mM EDTA, 20% glycerol, 0.5 mg/ml lysozyme, 10 mM MgCl2, 15 ug/ml deoxyribonuclease I, and Complete TM protease inhibitor tablets (Roche). After addition of the lysis buffer, frozen cell pellets were resuspended using a tissue homogenizer. To reduce the viscosity of the sample, aliquots of the lysate were sonicated on ice using a microtip attached to a Branson sonicator. The sonicated lysate was centrifuged at 100,000×g for 1 hr at 4° C. and filtered through a 0.2 μm filter unit (Corning).
The protein was purified using three sequential chromatography steps: Heparin sepharose CL-6B, polyU sepharose 4B, and Hitrap SP sepharose (Pharmacia). The chromatography buffers were identical to the lysis buffer but contained no lysozyme, deoxyribonuclease I, MgC12 or protease inhibitor and the NaCl concentration of the buffer was adjusted according to the requirements for charging the protein onto the column. Each column was eluted with a NaCl gradient which varied in length from 5-50 column volumes depending on the column type. After the final chromatography step, the resulting purity of the enzyme is >90% based on SDS-PAGE analysis. The enzyme was aliquoted and stored at −80° C.
Standard HCV NS5B RdRp enzyme assay. HCV RdRp genotype 1b assays were run in a final volume of 60 μl in 96 well plates (Costar 3912). The assay buffer composed of 20 mM Hepes, pH 7.5, 2.5 mM KCl, 2.5 mM MgCl2, 1 mM DTT, 1.6 U RNAse inhibitor (Promega N2515), 0.1 mg/ml BSA (Promega R3961), and 2% glycerol. All compounds were serially diluted (3-fold) in DMSO and diluted further in water such that the final concentration of DMSO in the assay was 2%. HCV RdRp genotype 1b enzyme was used at a final concentration of 28 nM. A polyA template was used at 6 nM, and a biotinylated oligo-dT12 primer was used at 180 nM final concentration. Template was obtained commercially (Amersham 27-4110). Biotinylated primer was prepared by Sigma Genosys. 3H-UTP was used at 0.6 μCi (0.29 μM total UTP). Reactions were initiated by the addition of enzyme, incubated at 30° C. for 60 min, and stopped by adding 25 μl of 50 mM EDTA containing SPA beads (4 μg/μl, Amersham RPNQ 0007). Plates were read on a Packard Top Count NXT after >1 hr incubation at room temperature.
IC50 values for compounds were determined using seven different [I]. IC50 values were calculated from the inhibition using the formula y=A+((B−A)/(1+((C/x)^D))).

HCV replicon cells = assay: HCV replicon FRET / luciferase assay (96-well plates); type: cell-based; details: Hepatitis C virus, HCV replicon, read-out: EC50
From the text: FRET Assay Preparation. To perform the HCV FRET screening assay, 96-well cell culture plates were used. The FRET peptide (Anaspec, Inc.) (Taliani et al., Anal. Biochem. 1996, 240, 60-67) contains a fluorescence donor, EDANS, near one end of the peptide and an acceptor, DABCYL, near the other end. The fluorescence of the peptide is quenched by […] resonance energy transfer (RET) between the donor and the acceptor, but as the NS3 protease cleaves the peptide the products are released from RET quenching and the fluorescence of the donor becomes apparent. The assay reagent was made as follows: 5× cell Luciferase cell culture lysis reagent from Promega (#E153A) diluted to 1× with dH2O, NaCl added to 150 mM final, the FRET peptide diluted to 20 μM final from a 2 mM stock.
To prepare plates, HCV replicon cells, with or without a Renilla luciferase reporter gene, were trypsinized and placed into each well of a 96-well plate with titrated test compounds added in columns 3 through 12; columns 1 and 2 contained a control compound (HCV protease inhibitor), and the bottom row contained cells without compound. The plates were then placed in a CO2 incubator at 37° C.
Assays. Subsequent to addition of the test compounds described above (FRET Assay Preparation), at various times the plate was removed and Alamar blue solution (Trek Diagnostics, #00-100) was added per well as a measure of cellular toxicity. After reading in a Cytoflour 4000 instrument (PE Biosystems), plates were rinsed with PBS and then used for FRET assay by the addition of 30 ul of the FRET peptide assay reagent described above (FRET Assay Preparation) per well. The plate was then placed into the Cytoflour 4000 instrument which had been set to 340 excite/490 emission, automatic mode for 20 cycles and the plate read in a kinetic mode. Typically, the signal to noise using an endpoint analysis after the reads was at least three-fold. Alternatively, after Alamar blue reading, plates were rinsed with PBS, 50 ul of DMEM (high glucose) without phenol red was added and plates were then used for luciferase assay using the Promega Dual-Glo Luciferase Assay System.
Compound analysis was determined by quantification of the relative HCV replicon inhibition and the relative cytotoxicity values. To calculate cytoxicity values, the average Alamar Blue fluorescence signals from the control wells were set as 100% non-toxic. The individual signals in each of the compound test wells were then divided by the average control signal and multiplied by 100% to determine […]. To calculate the HCV replicon inhibition values, an average background value was obtained from the two wells containing the highest amount of HCV protease inhibitor at the end of the assay period. These numbers were similar to those obtained from naïve Huh-7 cells.
The background numbers were then subtracted from the average signal obtained from the control wells and this number was used as 100% activity. The individual signals in each of the compound test wells were then divided by the averaged control values after background subtraction and multiplied by 100% to determine percent activity. EC50 values for a protease inhibitor titration were calculated as the concentration which caused a 50% reduction in FRET or luciferase activity. The two numbers generated for the compound plate, percent cytoxicity and percent activity were used to determine compounds of interest for further analysis.

T1 sequence (Q9WMX2 2420-2992): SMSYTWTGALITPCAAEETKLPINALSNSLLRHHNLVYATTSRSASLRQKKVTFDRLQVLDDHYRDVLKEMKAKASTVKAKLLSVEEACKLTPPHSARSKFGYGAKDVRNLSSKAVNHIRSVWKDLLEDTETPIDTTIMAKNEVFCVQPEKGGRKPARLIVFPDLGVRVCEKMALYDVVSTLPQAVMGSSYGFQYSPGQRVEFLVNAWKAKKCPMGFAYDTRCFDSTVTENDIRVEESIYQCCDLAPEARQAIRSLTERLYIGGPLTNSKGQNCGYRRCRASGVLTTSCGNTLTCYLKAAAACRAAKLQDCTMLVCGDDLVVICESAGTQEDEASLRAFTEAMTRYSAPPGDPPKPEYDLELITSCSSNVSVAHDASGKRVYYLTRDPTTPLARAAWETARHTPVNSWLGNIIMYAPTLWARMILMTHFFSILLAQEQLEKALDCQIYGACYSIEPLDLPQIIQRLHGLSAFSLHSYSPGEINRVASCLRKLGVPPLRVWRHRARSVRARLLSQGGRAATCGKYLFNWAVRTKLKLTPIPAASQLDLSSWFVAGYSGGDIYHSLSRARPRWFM

| IC50 ([1]; Table 1b) [nM] | SMILES | IC50 ([1]; Table 1a) [nM] | EC50 (HCV replicon cells; Table 1a) [nM] | other results |
| --- | --- | --- | --- | --- |
|  | CCN1CCN(C(=O)c2cccc(-c3ccc4oc(-c5ccc(F)cc5)c(C(=O)NC)c4c3)c2)CC1 | 1000 to 10000 | 1000 to 10000 |  |
|  | CNC(=O)c1c(-c2ccc(F)cc2)oc2ccc(-c3cccc(C(=O)NC(C)c4cccnc4)c3)cc12 (stereo not shown) | < 250 | 250 to 1000 |  |
|  | CNC(=O)c1c(-c2ccc(F)cc2)oc2ccc(-c3cc(C(=O)NC4(c5ccccn5)CC4)c(OCc4cnccn4)cc3C)cc12 [drawing 711] |  |  | IC50 ([1]; second table titled Table 1d (numbers)): 2.1 nM; EC50 (HCV replicon cells; 24 h, second table titled Table 1d (numbers)): 1 nM |
|  | CNC(=O)c1c(-c2ccc(F)cc2)oc2ccc(-c3ccc(OCC(C)C)cc3)cc12 | > 10000 | > 400 |  |
|  | CNC(=O)c1c(-c2ccc(F)cc2)oc2ccc(-c3cccc(C(=O)NCc4nccs4)c3)cc12 | 250 to 1000 | 250 to 1000 |  |
|  | CNC(=O)c1c(-c2ccc(F)cc2)oc2ccc(-c3cccc(/C=C/C(=O)O)c3)cc12 | 250 to 1000 | 1000 to 10000 |  |
|  | CNC(=O)c1c(-c2ccc(F)cc2)oc2ccc(-c3cc(C(=O)NC4(c5cccc(C)n5)CC4)c(OC)cc3C)cc12 |  |  | IC50 ([1]; Table 1d (class symbols)): 1 to 250 nM |
|  | CCOC(=O)[C@H](C)NC(=O)c1cccc(-c2ccc3oc(-c4ccc(F)cc4)c(C(=O)NC)c3c2)c1 | < 250 | 1000 to 10000 |  |
|  | C#CCOc1cc(C)c(-c2ccc3oc(-c4ccc(F)cc4)c(C(=O)NC)c3c2)cc1C(=O)NC1(c2ccccn2)CC1 |  |  | IC50 ([1]; Table 1d (class symbols)): 1 to 250 nM; EC50 (HCV replicon cells; 24 h, Table 1d (class symbols)): 1 to 250 nM |
|  | CNC(=O)c1c(-c2ccc(F)cc2)oc2ccc(-c3cccc(C(=O)Nc4cc(C)nn4C)c3)cc12 | < 250 | < 250 |  |
|  | CNC(=O)c1c(-c2ccc(F)cc2)oc2ccc(-c3cccc(C(=O)NCC4CCCCC4)c3)cc12 | < 250 | 250 to 1000 |  |
|  | CNC(=O)c1c(-c2ccc(F)cc2)oc2ccc(-c3cccc(C(=O)NC(C)(C)C(=O)NCC#N)c3)cc12 | < 250 | 250 to 1000 |  |
| < 250 | CNC(=O)c1c(-c2ccc(F)cc2)oc2ccc(-c3ccc(-c4ccsc4)c(C(=O)NCC(C)C)c3)cc12 |  |  |  |
|  | CNC(=O)c1c(-c2ccc(F)cc2)oc2ccc(-c3cccc(C(=O)N[C@@H](C)c4cccc(OC)c4)c3)cc12 | < 250 | < 250 |  |
|  | CNC(=O)c1c(-c2ccc(F)cc2)oc2ccc(-c3cccc(C(=O)N4CCCC(CO)C4)c3)cc12 (stereo not shown) | 1000 to 10000 | 1000 to 10000 |  |
|  | CNC(=O)c1c(-c2ccc(F)cc2)oc2ccc(-c3cccc(C(=O)N(C)CCN(C)C)c3)cc12 | > 10000 | 1000 to 10000 |  |
|  | CNC(=O)c1c(-c2ccc(F)cc2)oc2ccc(-c3ccc(C(=O)N4CCC[C@@H]4COC)cc3)cc12 [drawing 288] | > 10000 | > 10000 |  |
| < 250 | CNC(=O)c1c(-c2ccc(F)cc2)oc2ccc(-c3ccc(-c4c[nH]c(=O)[nH]c4=O)c(C(=O)NCC(C)C)c3)cc12 |  |  |  |
| < 250 | CNC(=O)c1c(-c2ccc(F)cc2)oc2ccc(-c3ccc(-c4cncnc4)c(C(=O)NCC(C)C)c3)cc12 |  |  |  |
| < 250 | CNC(=O)c1c(-c2ccc(F)cc2)oc2ccc(-c3ccc(-c4ccnc(C)c4)c(C(=O)NCC(C)C)c3)cc12 |  |  |  |
| < 250 | CNC(=O)c1c(-c2ccc(F)cc2)oc2ccc(-c3ccc(-c4cccc(N)c4)c(C(=O)NCC(C)C)c3)cc12 |  |  |  |
| 250 to 1000 | CNC(=O)c1c(-c2ccc(F)cc2)oc2ccc(-c3cc(C(=O)NC4(C(=O)OC)CC4)c(O)cc3Cl)cc12 |  |  |  |
| 250 to 1000 | CNC(=O)c1c(-c2ccc(F)cc2)oc2ccc(-c3ccc(-c4cncc(OC)c4)c(C(=O)NCC(C)C)c3)cc12 |  |  |  |
| 250 to 1000 | CNC(=O)c1c(-c2ccc(F)cc2)oc2ccc(-c3ccc(-c4cncc(C)c4)c(C(=O)NCC(C)C)c3)cc12 |  |  |  |
| < 250 | CNC(=O)c1c(-c2ccc(F)cc2)oc2cc(N(CCO)S(C)(=O)=O)c(/C=C/C(=O)NC(C)(C)c3ccccc3)cc12 |  |  |  |
| 1000 to 10000 | CNC(=O)c1c(-c2ccc(F)cc2)oc2cc(NS(C)(=O)=O)c(/C=C/C(=O)NC(C)(C)c3ccccc3)cc12 |  |  |  |
| < 250 | CCOC(=O)c1[nH]c(-c2cccc(-c3ccc4oc(-c5ccc(F)cc5)c(C(=O)NC)c4c3)c2)nc1C |  |  |  |
| 250 to 1000 | CNC(=O)c1c(-c2ccc(F)cc2)oc2ccc(-c3cc(C(=O)NC4(C(=O)O)CC4)c(O)cc3Cl)cc12 |  |  |  |
| < 250 | CNC(=O)c1c(-c2ccc(F)cc2)oc2ccc(-c3ccc(-c4cnc(N)nc4)c(C(=O)NCC(C)C)c3)cc12 |  |  |  |

| SMILES | IC50 ([1]; Table 1b) [nM] | IC50 ([1]; Table 1a) [nM] | EC50 (HCV replicon cells; Table 1a) [nM] | other results |
| --- | --- | --- | --- | --- |
| CNC(=O)c1c(-c2ccc(F)cc2)oc2ccc(-c3cc(C(=O)NC4(c5ccccn5)CC4)ccc3OCCN)cc12 | < 20 |  |  | EC50 (HCV replicon cells; Table 1b): < 250 nM |
| CNC(=O)c1c(-c2ccc(F)cc2)oc2ccc(-c3cc(C(=O)NC4(c5nc(C)no5)CC4)c(OC)cc3C)cc12 [drawing 500] | < 250 |  |  | EC50 (HCV replicon cells; Table 1b): < 250 nM |
| CNC(=O)c1c(-c2ccc(F)cc2)oc2ccc(-c3cc(OCc4cccnc4)cc(C(=O)NCC(C)C)c3)cc12 | 1000 to 10000 |  |  | EC50 (HCV replicon cells; Table 1b): 1000 to 10000 nM |
| CNC(=O)c1c(-c2ccc(F)cc2)oc2cc([N+](=O)[O-])c(-c3cc(C(=O)NC4(c5ccccc5)CC4)ccc3OC)cc12 | < 250 |  |  | EC50 (HCV replicon cells; Table 1b): 250 to 1000 nM |
| CNC(=O)c1c(-c2ccc(F)cc2)oc2ccc(-c3cc(C(=O)NC4(c5ccccn5)CC4)c(-c4ccccc4Cl)cc3C)cc12 | < 250 |  |  | EC50 (HCV replicon cells; Table 1b): < 250 nM |
| CNC(=O)c1c(-c2ccc(F)cc2)oc2ccc(-c3cc(C(=O)NC4(C(=O)O)CC4)ccc3C)cc12 | < 250 |  |  | EC50 (HCV replicon cells; Table 1b): 1000 to 10000 nM |
| CNC(=O)c1c(-c2ccc(F)cc2)oc2ccc(-c3cccc(C(=O)NC(C)(C)C(=O)Nc4nccnn4)c3)cc12 | < 250 |  |  | EC50 (HCV replicon cells; Table 1b): < 250 nM |
